Test results taken from the supplement of paper PMC10307832.

Tests used:
Test in all cases: relative viability (nuclei count vs DMSO), 5 days (fraction); higher = more cells survive
Dovitinib + Luminespib = compound: CN1CCN(c2ccc3nc(-c4c(N)c5c(F)cccc5[nH]c4=O)[nH]c3c2)CC1 [Dovitinib] + CCNC(=O)c1noc(-c2cc(C(C)C)c(O)cc2O)c1-c1ccc(CN2CCOCC2)cc1 [Luminespib] (partner 0.01 µM)
Summary of the method: (§1)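 Five library-drug doses in √10 steps were combined with a fixed anchor-drug dose, or a single drug was given alone, by pin tool to lung cancer cell lines in 1536-well plates the day after seeding. Nuclei were stained and counted after 5 days. Relative viability is the nuclei count in treated wells over that in vehicle wells, taken as the median of duplicate plates.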

Dovitinib + Bortezomib = compound: CN1CCN(c2ccc3nc(-c4c(N)c5c(F)cccc5[nH]c4=O)[nH]c3c2)CC1 [Dovitinib] + CC(C)C[C@H](NC(=O)[C@H](Cc1ccccc1)NC(=O)c1cnccn1)B(O)O [Bortezomib] (partner 0.002 µM)
Summary of the method: as §1

Dovitinib + Navitoclax = compound: CN1CCN(c2ccc3nc(-c4c(N)c5c(F)cccc5[nH]c4=O)[nH]c3c2)CC1 [Dovitinib] + CC1(C)CCC(c2ccc(Cl)cc2)=C(CN2CCN(c3ccc(C(=O)NS(=O)(=O)c4ccc(N[C@H](CCN5CCOCC5)CSc5ccccc5)c(S(=O)(=O)C(F)(F)F)c4)cc3)CC2)C1 [Navitoclax] (partner 0.5 µM)
Summary of the method: as §1

Dovitinib + Dasatinib = compound: CN1CCN(c2ccc3nc(-c4c(N)c5c(F)cccc5[nH]c4=O)[nH]c3c2)CC1 [Dovitinib] + Cc1nc(Nc2ncc(C(=O)Nc3c(C)cccc3Cl)s2)cc(N2CCN(CCO)CC2)n1 [Dasatinib] (partner 0.075 µM)
Summary of the method: as §1

| Cell Line | relative viability (Dovitinib + Luminespib; first compound 0.02 µM) | relative viability (Dovitinib + Luminespib; first compound 0.06325 µM) | relative viability (Dovitinib + Luminespib; first compound 0.2 µM) | relative viability (Dovitinib + Luminespib; first compound 0.6325 µM) | relative viability (Dovitinib + Luminespib; first compound 2 µM) | relative viability (Dovitinib + Bortezomib; first compound 0.02 µM) | relative viability (Dovitinib + Bortezomib; first compound 0.06325 µM) | relative viability (Dovitinib + Bortezomib; first compound 0.2 µM) | relative viability (Dovitinib + Bortezomib; first compound 0.6325 µM) | relative viability (Dovitinib + Bortezomib; first compound 2 µM) | relative viability (Dovitinib + Navitoclax; first compound 0.02 µM) | relative viability (Dovitinib + Navitoclax; first compound 0.06325 µM) | relative viability (Dovitinib + Navitoclax; first compound 0.2 µM) | relative viability (Dovitinib + Navitoclax; first compound 0.6325 µM) | relative viability (Dovitinib + Navitoclax; first compound 2 µM) | relative viability (Dovitinib + Dasatinib; first compound 0.02 µM) | relative viability (Dovitinib + Dasatinib; first compound 0.06325 µM) | relative viability (Dovitinib + Dasatinib; first compound 0.2 µM) | relative viability (Dovitinib + Dasatinib; first compound 0.6325 µM) | relative viability (Dovitinib + Dasatinib; first compound 2 µM) |
| --- | --- | --- | --- | --- | --- | --- | --- | --- | --- | --- | --- | --- | --- | --- | --- | --- | --- | --- | --- | --- |
| PC-14 | 0.147 | 0.158 | 0.15 | 0.17 | 0.16 | 0.796 | 0.906 | 0.834 | 0.808 | 0.819 | 0.998 | 1.08 | 1 | 0.988 | 0.939 | 0.257 | 0.273 | 0.238 | 0.3 | 0.331 |
| RERF-LC-KJ | 1.32 | 1.25 | 1.4 | 1.19 | 1.47 | 1.11 | 1.14 | 1.14 | 1.06 | 0.997 | 0.794 | 1.06 | 1.1 | 1.15 | 1.09 | 0.842 | 0.842 | 0.998 | 0.765 | 0.915 |
| SK-LU-1 | 0.203 | 0.19 | 0.204 | 0.18 | 0.198 | 0.977 | 0.993 | 1.06 | 1.28 | 1.26 | 0.787 | 1.09 | 0.835 | 0.748 | 0.925 | 0.167 | 0.176 | 0.21 | 0.185 | 0.19 |
| SW 1573 | 0.264 | 0.214 | 0.275 | 0.525 | 0.29 | 0.985 | 1.06 | 0.997 | 1.08 | 1.03 | 1.03 | 0.934 | 1.02 | 0.97 | 1 | 0.461 | 0.502 | 0.513 | 0.409 | 0.651 |
| UMC-11 | 0.964 | 1.03 | 0.979 | 1 | 0.996 | 0.77 | 0.669 | 0.881 | 0.81 | 0.668 | 0.364 | 0.308 | 0.373 | 0.297 | 0.318 | 0.423 | 0.481 | 0.492 | 0.493 | 0.492 |
